By inhibition is commonly meant the change of the read-out against control, counted positive when it falls.

Common to all, as to settings: Compound concentration 10 µM
The target of assay [1] is T1, Alpha-2C adrenergic receptor (Homo sapiens) (UniProt P18825).
T1 sequence (whole entry): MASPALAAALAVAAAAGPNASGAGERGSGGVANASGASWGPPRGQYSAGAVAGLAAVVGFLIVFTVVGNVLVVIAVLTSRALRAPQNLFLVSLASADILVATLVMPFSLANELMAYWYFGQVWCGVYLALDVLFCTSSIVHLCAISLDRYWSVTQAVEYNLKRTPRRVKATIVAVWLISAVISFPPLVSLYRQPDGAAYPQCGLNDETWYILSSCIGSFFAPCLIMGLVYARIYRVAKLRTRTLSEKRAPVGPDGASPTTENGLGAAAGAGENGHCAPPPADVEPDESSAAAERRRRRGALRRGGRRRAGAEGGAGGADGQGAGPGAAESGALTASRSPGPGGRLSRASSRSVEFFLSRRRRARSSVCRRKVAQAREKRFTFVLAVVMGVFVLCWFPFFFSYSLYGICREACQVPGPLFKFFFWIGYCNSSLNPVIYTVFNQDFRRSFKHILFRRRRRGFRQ

Assay [2] concerns the target T2, Alpha-2B adrenergic receptor (Homo sapiens) (UniProt P18089).
T2 sequence (whole entry): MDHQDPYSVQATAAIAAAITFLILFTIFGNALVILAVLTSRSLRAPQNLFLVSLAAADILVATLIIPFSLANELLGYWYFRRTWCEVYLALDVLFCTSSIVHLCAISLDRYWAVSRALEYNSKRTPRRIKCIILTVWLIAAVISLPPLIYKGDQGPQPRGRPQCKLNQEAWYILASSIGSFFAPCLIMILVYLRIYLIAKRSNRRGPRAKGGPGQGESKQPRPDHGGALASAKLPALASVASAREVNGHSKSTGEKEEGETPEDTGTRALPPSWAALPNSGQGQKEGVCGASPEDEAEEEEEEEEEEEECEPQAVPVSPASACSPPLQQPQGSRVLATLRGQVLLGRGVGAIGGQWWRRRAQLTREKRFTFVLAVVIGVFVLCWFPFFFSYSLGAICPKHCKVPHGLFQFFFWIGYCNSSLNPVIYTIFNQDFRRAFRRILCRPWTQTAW

Assay [3] concerns the target T3, 5-hydroxytryptamine receptor 3A (Homo sapiens) (UniProt P46098).
T3 sequence (whole entry): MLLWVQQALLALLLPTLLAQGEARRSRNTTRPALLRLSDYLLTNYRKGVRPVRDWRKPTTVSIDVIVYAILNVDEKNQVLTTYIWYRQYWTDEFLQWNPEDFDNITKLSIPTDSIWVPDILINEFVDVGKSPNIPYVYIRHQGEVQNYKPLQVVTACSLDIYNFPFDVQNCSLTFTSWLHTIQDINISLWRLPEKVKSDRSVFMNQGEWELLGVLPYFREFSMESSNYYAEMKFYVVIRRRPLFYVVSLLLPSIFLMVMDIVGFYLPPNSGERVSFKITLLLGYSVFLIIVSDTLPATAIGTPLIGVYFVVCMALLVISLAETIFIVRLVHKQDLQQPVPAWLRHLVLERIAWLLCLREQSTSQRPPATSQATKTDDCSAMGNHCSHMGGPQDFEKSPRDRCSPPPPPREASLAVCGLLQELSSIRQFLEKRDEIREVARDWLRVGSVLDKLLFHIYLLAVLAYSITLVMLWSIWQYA

Assay [4] has as its target D(2) dopamine receptor (Homo sapiens) (UniProt P14416).
The target in assay [5] is Translocator protein (Homo sapiens) (UniProt P30536).
Chain of Translocator protein (Homo sapiens) (P30536 whole entry): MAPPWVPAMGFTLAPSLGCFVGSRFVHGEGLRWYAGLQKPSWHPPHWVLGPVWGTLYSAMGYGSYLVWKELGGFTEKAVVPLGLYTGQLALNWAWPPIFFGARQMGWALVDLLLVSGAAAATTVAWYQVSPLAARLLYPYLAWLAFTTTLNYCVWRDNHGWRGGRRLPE
Assay [6] deals with Sodium-dependent noradrenaline transporter (Homo sapiens) (UniProt P23975).
Chain of Sodium-dependent noradrenaline transporter (Homo sapiens) (P23975 whole entry): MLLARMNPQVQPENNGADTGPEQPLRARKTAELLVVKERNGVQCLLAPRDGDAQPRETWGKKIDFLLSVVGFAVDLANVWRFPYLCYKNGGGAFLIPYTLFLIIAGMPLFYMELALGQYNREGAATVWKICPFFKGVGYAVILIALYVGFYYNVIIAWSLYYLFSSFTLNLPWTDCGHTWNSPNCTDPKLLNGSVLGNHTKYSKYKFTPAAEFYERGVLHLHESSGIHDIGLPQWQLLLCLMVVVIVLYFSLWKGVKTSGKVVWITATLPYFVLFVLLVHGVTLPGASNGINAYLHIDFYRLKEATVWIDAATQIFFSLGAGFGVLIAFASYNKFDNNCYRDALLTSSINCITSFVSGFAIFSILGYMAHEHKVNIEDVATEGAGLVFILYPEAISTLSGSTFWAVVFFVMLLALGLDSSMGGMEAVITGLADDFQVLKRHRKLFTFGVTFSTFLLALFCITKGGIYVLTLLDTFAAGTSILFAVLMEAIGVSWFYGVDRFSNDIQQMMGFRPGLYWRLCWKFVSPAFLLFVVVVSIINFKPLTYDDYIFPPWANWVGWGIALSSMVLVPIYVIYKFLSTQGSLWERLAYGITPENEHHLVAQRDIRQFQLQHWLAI
The target in assay [7] is Histamine H4 receptor (Homo sapiens) (UniProt Q9H3N8).
Chain of Histamine H4 receptor (Homo sapiens) (Q9H3N8 whole entry): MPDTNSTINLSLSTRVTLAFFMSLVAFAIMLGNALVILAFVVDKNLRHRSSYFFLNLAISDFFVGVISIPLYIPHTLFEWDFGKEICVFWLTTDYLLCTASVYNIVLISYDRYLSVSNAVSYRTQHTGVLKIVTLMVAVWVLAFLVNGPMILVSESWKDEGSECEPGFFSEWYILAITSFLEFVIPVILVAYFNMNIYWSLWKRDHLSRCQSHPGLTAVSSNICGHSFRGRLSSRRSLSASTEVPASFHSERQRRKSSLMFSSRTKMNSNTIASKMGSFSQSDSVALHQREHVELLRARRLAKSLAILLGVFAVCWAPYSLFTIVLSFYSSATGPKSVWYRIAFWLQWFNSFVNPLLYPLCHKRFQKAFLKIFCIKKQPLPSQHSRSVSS
In assay [8] the target is T4, D(4) dopamine receptor (Homo sapiens) (UniProt P21917).
T4 sequence (whole entry): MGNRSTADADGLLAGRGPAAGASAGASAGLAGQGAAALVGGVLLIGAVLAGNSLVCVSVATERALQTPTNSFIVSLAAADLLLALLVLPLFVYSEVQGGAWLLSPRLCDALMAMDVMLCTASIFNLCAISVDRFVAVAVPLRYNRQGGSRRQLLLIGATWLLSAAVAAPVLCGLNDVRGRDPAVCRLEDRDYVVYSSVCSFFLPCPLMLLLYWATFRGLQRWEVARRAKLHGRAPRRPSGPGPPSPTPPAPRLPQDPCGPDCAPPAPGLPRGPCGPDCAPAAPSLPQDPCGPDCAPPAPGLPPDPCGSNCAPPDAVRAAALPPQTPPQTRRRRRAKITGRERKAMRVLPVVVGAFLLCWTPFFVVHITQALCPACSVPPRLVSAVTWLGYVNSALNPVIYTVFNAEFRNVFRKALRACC

Assay [9] deals with Sigma intracellular receptor 2 (Homo sapiens) (UniProt Q5BJF2).
Chain of Sigma intracellular receptor 2 (Homo sapiens) (Q5BJF2 whole entry): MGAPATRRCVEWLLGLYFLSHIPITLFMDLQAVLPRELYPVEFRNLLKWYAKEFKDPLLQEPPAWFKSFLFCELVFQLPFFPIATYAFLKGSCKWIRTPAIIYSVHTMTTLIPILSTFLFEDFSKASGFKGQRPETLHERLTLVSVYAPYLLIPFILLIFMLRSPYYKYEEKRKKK
The target in assay [10] is D(1A) dopamine receptor (Homo sapiens) (UniProt P21728).
Chain of D(1A) dopamine receptor (Homo sapiens) (P21728 whole entry): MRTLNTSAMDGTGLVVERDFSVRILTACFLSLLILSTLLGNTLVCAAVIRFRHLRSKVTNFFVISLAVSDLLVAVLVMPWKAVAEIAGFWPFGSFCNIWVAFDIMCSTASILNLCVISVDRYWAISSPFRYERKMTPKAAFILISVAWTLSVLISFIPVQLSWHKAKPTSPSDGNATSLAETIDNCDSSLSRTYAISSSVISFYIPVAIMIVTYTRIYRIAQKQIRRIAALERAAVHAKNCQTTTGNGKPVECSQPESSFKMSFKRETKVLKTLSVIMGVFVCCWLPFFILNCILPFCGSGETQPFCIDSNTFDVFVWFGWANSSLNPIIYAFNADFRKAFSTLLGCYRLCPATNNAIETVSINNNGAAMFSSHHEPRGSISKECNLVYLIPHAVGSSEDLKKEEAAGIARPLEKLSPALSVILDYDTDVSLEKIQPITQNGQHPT
Assay [11] deals with T5, Alpha-1B adrenergic receptor (Homo sapiens) (UniProt P35368).
T5 sequence (whole entry): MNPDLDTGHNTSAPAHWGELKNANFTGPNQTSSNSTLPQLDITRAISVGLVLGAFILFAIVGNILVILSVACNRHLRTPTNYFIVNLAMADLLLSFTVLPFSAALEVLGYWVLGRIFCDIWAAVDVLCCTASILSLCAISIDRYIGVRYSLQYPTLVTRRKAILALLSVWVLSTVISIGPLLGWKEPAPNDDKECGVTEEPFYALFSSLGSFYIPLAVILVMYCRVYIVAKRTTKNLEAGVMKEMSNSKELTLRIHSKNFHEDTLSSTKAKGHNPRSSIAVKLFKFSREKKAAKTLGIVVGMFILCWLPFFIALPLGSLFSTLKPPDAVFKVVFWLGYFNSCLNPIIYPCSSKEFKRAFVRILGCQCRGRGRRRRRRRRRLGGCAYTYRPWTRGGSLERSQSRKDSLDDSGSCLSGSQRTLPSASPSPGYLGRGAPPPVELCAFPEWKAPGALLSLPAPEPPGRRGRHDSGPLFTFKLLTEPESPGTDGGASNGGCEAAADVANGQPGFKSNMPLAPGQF

In assay [12] the target is Muscarinic acetylcholine receptor M3 (Homo sapiens) (UniProt P20309).
Chain of Muscarinic acetylcholine receptor M3 (Homo sapiens) (P20309 whole entry, looked up): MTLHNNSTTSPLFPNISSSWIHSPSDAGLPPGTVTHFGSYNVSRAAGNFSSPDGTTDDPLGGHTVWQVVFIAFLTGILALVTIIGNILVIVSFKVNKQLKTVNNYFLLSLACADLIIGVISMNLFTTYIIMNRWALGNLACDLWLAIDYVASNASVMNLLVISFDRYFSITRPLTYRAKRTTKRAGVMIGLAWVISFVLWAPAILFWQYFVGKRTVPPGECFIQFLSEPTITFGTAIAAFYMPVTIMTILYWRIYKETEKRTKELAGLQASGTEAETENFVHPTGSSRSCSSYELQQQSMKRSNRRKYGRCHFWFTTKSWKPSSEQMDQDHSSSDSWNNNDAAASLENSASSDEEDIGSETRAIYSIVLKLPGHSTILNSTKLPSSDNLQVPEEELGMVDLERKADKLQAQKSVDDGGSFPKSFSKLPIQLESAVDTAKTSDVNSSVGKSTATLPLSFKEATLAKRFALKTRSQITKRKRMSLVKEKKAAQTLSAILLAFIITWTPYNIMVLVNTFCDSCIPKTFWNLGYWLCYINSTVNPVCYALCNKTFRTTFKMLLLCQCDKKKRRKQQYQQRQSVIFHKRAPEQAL

Chain of D(2) dopamine receptor (Homo sapiens) (P14416 whole entry): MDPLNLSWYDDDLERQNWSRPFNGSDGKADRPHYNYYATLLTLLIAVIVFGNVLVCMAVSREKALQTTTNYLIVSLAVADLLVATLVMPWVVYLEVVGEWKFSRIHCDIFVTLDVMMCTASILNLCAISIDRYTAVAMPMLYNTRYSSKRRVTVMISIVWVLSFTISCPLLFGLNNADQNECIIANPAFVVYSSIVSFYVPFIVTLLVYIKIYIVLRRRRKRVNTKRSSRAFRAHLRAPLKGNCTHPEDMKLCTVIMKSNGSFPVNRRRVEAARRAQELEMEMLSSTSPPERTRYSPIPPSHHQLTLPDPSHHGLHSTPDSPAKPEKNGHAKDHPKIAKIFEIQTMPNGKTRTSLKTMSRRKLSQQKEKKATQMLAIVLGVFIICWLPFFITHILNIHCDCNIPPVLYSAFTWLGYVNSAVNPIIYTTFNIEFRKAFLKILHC

`CN1C(=O)[C@@H](NC(=O)c2cc3ccccc3[nH]2)N=C(c2ccccc2)c2ccccc21`: the inhibition is -0.17% in assay [1]; 34.7% in assay [2]; 2.09% in assay [3]; 4.63% in assay [4]; 59.1% in assay [5]; 28.5% in assay [6]. The inhibition was -4.47% in assay [7]; -8.65% in assay [8]; 8.74% in [9]; 7.2% in [10]; -6.37% in [11].
`CCCCc1nc(Cl)c(CO)n1Cc1ccc(-c2ccccc2-c2nnn[nH]2)cc1`: the inhibition in assay [1] is 3.84%; in [3] it was -6.45%; in assay [4], 23.9%; in assay [5], 5.8%; in assay [6], 11.8%; in [7], 7.13%. Moreover, the inhibition in assay [8] is 37%; in [9], 27.4%; in [10] it was 10.3%; in assay [11], -2.24%.
Take `Cc1cccc(NC(=O)N[C@@H]2N=C(c3ccccc3)c3ccccc3N(C)C2=O)c1`: the inhibition in [1] is 12.3%; in assay [2] it was 7.07%; in assay [3] it was -5.37%; in [4], 14.2%; in [5] it was 27.5%; in assay [6] it was 1.83%. The inhibition in assay [7] was 18.3%; in [8], 14.6%; in assay [9] it was 15.4%.
Regarding `COc1ccc(C2(O)OC(=O)C(c3ccc4c(c3)OCO4)=C2Cc2cc(OC)c(OC)c(OC)c2)cc1` (stereo not given), the inhibition is -2.96% in assay [2]; -2.26% in [4]; 37% in [5]; 6.22% in assay [12]; 14.6% in [7]; 7.04% in [8]. The inhibition was -7.61% in [10] and -4.11% in assay [11].
For the compound `O=C(Nc1ccc(Cl)cc1)Nc1cccc(-c2cccc(N3CCCC3)n2)c1`, the inhibition was -1.24% in assay [1]; 5.47% in [2]; -5.81% in [3]; 8.25% in assay [4]; 34.9% in assay [5]; -1.99% in assay [7]. For the same compound, the inhibition in assay [8] is 5.64%; in assay [9] it was 6.97%; in [10] it was 6.95%.
For the compound `CC(C)NCC(O)COc1cccc2ccccc12` (stereo not given), the inhibition in [1] is 8.7%; in [3] it was 8.73%; in [4] it was 17.7%; in assay [6], 46.2%; in [7], 10.8%; in assay [8], 13.2%. Moreover, the inhibition in assay [9] was 90%; in assay [10], 4.93%.
Regarding `CC(C)(C)NC[C@H](O)COc1nsnc1N1CCOCC1`, the inhibition in assay [1] is 1.66%; in assay [4], 6.14%; in assay [5], 0.37%; in assay [7] it was 3.02%; in [8], 15.6%; in assay [9], 10.5%. For the same compound, the inhibition in [11] was -6.31%.
Consider `COc1cc2c(CCNC(C)=O)c[nH]c2cc1Cl`, for which the inhibition in assay [1] is -1.89%; in [2], 9.08%; in assay [4], -7.31%; in assay [5], 20.1%; in assay [7] it was 2.03%; in [8], -6.09%. Besides, the inhibition in assay [9] is -5.25%; in assay [10], 5.8%.
For the compound `CN(C)C(=O)C(CCN1CCC(O)(c2ccc(Cl)cc2)CC1)(c1ccccc1)c1ccccc1`, the inhibition in [1] is 39.4%; in [4], 16.2%; in assay [5] it was 50%; in assay [6], 25.8%; in assay [7], 7.53%; in [8] it was 54.2%. Also, the inhibition in assay [9] was 95.5%; in assay [10], 2.24%; in assay [11], 52.4%.
`N#Cc1c(N)nc(SCC(N)=O)c(C#N)c1-c1ccc(OCC2CC2)cc1`: the inhibition is -9.96% in [2]; 39% in assay [5]; 14.3% in [7]; 8.04% in [8]; -6.52% in assay [11].
`O=C(Cc1ccc(Cl)c(Cl)c1)N1CCCC[C@H]1CN1CCCC1`: the inhibition is 24.5% in [1]; 34.8% in assay [2]; 5.92% in assay [3]; 44.5% in assay [4]; 8.29% in assay [5]; 23.7% in [6]. Moreover, the inhibition in assay [7] was -9.98%; in [8], 79.7%; in assay [9] it was 92.3%; in assay [11], 11.4%.
For `C[C@@H](N)Cc1c[nH]cn1`, the inhibition in [1] is 10.9%; in [2] it was 9.47%; in assay [3], 5.88%; in assay [4] it was -4.88%; in assay [12] it was -7.33%; in [6], -7.81%. Moreover, the inhibition was 95.7% in assay [7], 20.2% in assay [9] and 14.2% in assay [10].
On to `N=C(N)SCCc1c[nH]cn1`, for which the inhibition in assay [1] was 20.8%; in [2], 17.9%; in assay [3] it was 45.7%; in assay [4] it was -5.28%; in assay [5], 5.09%; in [12], -9.79%. Besides, the inhibition in [6] is 11.5%; in [7], 111%; in [8], 6.59%; in assay [9], 13.8%; in assay [11], -9.87%.
`Cc1cccc([C@H](C)c2c[nH]cn2)c1C`: the inhibition in assay [1] was 99.1%; in [2] it was 97.8%; in assay [3], 13.3%; in assay [4] it was 14.4%; in assay [5] it was -0.25%; in assay [6] it was 50.9%. The inhibition is 11.3% in assay [7]; 26.9% in assay [8]; 37.8% in [9]; -3.69% in [10]; 54.8% in [11].
